What was measured:
[1] = test system: Phakopsora pachyrhizi (the causal agent of Asian soybean rust); assay: Test A: preventive spray on soybean seedlings, visual disease rating (100 = 100% control; * 50 ppm, ** 10 ppm, *** 250 ppm); assay type: in vivo; conditions: 100 = 100% disease control; for pest or weed control at 10 ppm: Phakopsora pachyrhizi
In short: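 Preventive test: one day after spraying compound (acetone/water suspension, 250 ppm PEG400), seedlings received rust spore inoculum, 24 h in saturated air then 8 days in growth chamber, both at 22 °C. Disease control scored visually, 100 = complete, 0 = none, relative to untreated controls.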

[2] = test system: Puccinia recondita f. sp. tritici (the causal agent of wheat leaf rust); assay: Test B: preventive spray on wheat seedlings, disease rating (100 = 100% control; * 50 ppm, ** 10 ppm, *** 250 ppm); assay type: in vivo; conditions: 100 = 100% disease control; for pest or weed control at 10 ppm: Puccinia recondita
In short: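 Preventive test: Puccinia recondita f. sp. tritici spores were inoculated one day after run-off spraying of wheat seedlings with test suspension (acetone/water 50/50, 250 ppm PEG400). After 24 h in saturated air and 6 days in a growth chamber, both at 20° C, control was scored 0–100 versus untreated plants.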

[3] = 10 ppm test suspension, soybean seedlings
[4] = 10 ppm test suspension, wheat seedlings
[5] = 50 ppm test suspension, 0 = no control
[6] = 10 ppm test suspension, 0 = no control
[7] = 50 ppm test suspension, soybean seedlings
[8] = 50 ppm test suspension, wheat seedlings

O=C(NCC1CC1)c1csc(Cc2ccc(OCC(O)(O)C(F)(F)F)cc2)n1 [Compound 69]
Test A disease control rating [1, 3]: 98%
Test B disease control rating [2, 4]: 96%

CCOC(=COc1ccc(Cc2ccnc(SC)n2)cc1)C(F)(F)F [compound 308]
Test A disease control rating [1, 5]: 25%
Test B disease control rating [2, 5]: 0%

CCO/C(=C\Oc1cccc(Cn2cc(C(=O)OCC3CCC3)cn2)c1)C(F)(F)F [compound 342]
Test A disease control rating [1, 6]: 100%
Test B disease control rating [2, 6]: 0%

CCOC(=O)c1cnn(Cc2ccc(O/C=C(\OCC)C(F)(F)F)cc2)c1 [compound 298]
Test A disease control rating [1, 6]: 0%
Test B disease control rating [2, 6]: 0%

CCOC(=O)c1cnn(Cc2ccc(O/C=C(\OCCOC)C(F)(F)F)cc2)c1 [compound 54]
Test A disease control rating [1, 3]: 0%
Test B disease control rating [2, 4]: 0%

CCO/C(=C\Oc1ccc(Cn2cc(C(=O)NCC3CC3)cn2)cc1)C(F)(F)F [compound 117]
Test A disease control rating [1, 3]: 23%
Test B disease control rating [2, 4]: 0%

CCOC(=O)c1cnn(Cc2ccc(O/C=C(\OCC)C(F)(F)F)c(Br)c2)c1 [compound 344]
Test A disease control rating [1, 5]: 100%
Test B disease control rating [2, 5]: 0%

CCOC(=O)c1cnn(COc2ccc(OCC(O)(O)C(F)(F)F)cc2)c1 [Compound 366, ethyl 1-[[4-(3,3,3-trifluoro-2,2-dihydroxypropoxy)phenoxy]methyl]-1H-pyrazole-4-carboxylate]
pest or weed control at 10 ppm [1, 6]: 79%
pest or weed control at 10 ppm [2, 6]: 55%

CCCCCCOC(=O)c1cnn(Cc2ccc(OCC3(C(F)(F)F)OCCO3)cc2)c1 [compound 16]
Test A disease control rating [1, 3]: 99%
Test B disease control rating [2, 4]: 0%

CCOC(=O)c1cnn(CCCc2cccc(OCC(O)(O)C(F)(F)F)c2)c1 [compound 417]
pest or weed control at 10 ppm [1, 6]: 0%
pest or weed control at 10 ppm [2, 6]: 0%

O=C(OCc1ccc(Cl)c(Cl)c1)c1cnn(Cc2ccc(OCC3(C(F)(F)F)OCCO3)cc2)c1 [compound 17]
Test A disease control rating [1, 3]: 100%
Test B disease control rating [2, 4]: 0%

CCOC(=O)c1cnn(Cc2ccc(OCC3(C(F)(F)F)OCCO3)nc2)c1 [compound 166]
Test A disease control rating [1, 3]: 100%
Test B disease control rating [2, 4]: 95%

FC(F)(F)C1(COc2ccc(Cc3ccccc3)cc2)OCCO1 [compound 192]
Test A disease control rating [1, 3]: 0%
Test B disease control rating [2, 4]: 0%

C=CCOC(=O)c1ccc(O/C=C(\OCC)C(F)(F)F)cc1 [compound 74]
Test A disease control rating [1, 3]: 0%
Test B disease control rating [2, 4]: 0%

CCO/C(=C\Oc1ccc(Cn2cc(C(=O)NCC#N)cn2)cc1)C(F)(F)F [compound 107]
Test A disease control rating [1, 3]: 0%
Test B disease control rating [2, 4]: 0%

CCOC(=COc1ccc(Cn2ccc(C)n2)cc1)C(F)(F)F [compound 158]
Test A disease control rating [1, 3]: 0%
Test B disease control rating [2, 4]: 0%

CCCCOC(=O)c1cnn(Cc2cccc(O/C=C(\OCC)C(F)(F)F)c2)c1 [compound 339]
Test A disease control rating [1, 6]: 100%
Test B disease control rating [2, 6]: 0%

C=CCNC(=O)c1ccc(O/C=C(\OCC)C(F)(F)F)cc1 [compound 103]
Test A disease control rating [1, 3]: 0%
Test B disease control rating [2, 4]: 0%

CCO/C(=C\Oc1ccc(COC(N)=O)cc1)C(F)(F)F [compound 193]
Test A disease control rating [1, 3]: 0%
Test B disease control rating [2, 4]: 86%

CCCOC(=O)c1ccn(Cc2ccc(OC=C(OCC)C(F)(F)F)cc2)n1 [compound 292]
Test A disease control rating [1, 6]: 100%
Test B disease control rating [2, 6]: 0%

O=C(NCC(F)(F)F)c1cnc(Cc2ccc(OCC(O)(O)C(F)(F)F)cc2)s1 [compound 277]
Test A disease control rating [1, 6]: 50%
Test B disease control rating [2, 6]: 45%

CSc1nccc(Cc2ccc(OCC3(C(F)(F)F)OCCO3)cc2)n1 [compound 281]
Test A disease control rating [1, 5]: 95%
Test B disease control rating [2, 5]: 98%

O=C(NCc1ccc(OCC2(C(F)(F)F)OCCO2)cc1)c1cccc(C(F)(F)F)c1 [compound 179]
Test A disease control rating [1, 3]: 0%
Test B disease control rating [2, 4]: 0%

CCO/C(=C\Oc1ccc(CC#N)cc1)C(F)(F)F [compound 154]
Test A disease control rating [1, 3]: 0%
Test B disease control rating [2, 4]: 0%

C#CCNC(=O)c1ccc(O/C=C(\OCC)C(F)(F)F)cc1 [compound 102]
Test A disease control rating [1, 3]: 0%
Test B disease control rating [2, 4]: 0%

C=CCOC(=O)c1cnn(Cc2ccc(OCC3(C(F)(F)F)OCCO3)cc2)c1 [compound 188]
Test A disease control rating [1, 3]: 100%
Test B disease control rating [2, 4]: 0%

O=C(NCc1ccc(OCC2(C(F)(F)F)OCCO2)cc1)C1CC1 [compound 176]
Test A disease control rating [1, 3]: 0%
Test B disease control rating [2, 4]: 0%

CCC#CCOC(=O)c1ccn(Cc2ccc(O/C=C(\OCC)C(F)(F)F)cc2)n1 [compound 326]
Test A disease control rating [1, 6]: 100%
Test B disease control rating [2, 6]: 0%

CCO/C(=C\Oc1ccc(CCn2cc(C(=O)O)cn2)cc1)C(F)(F)F [compound 328]
Test A disease control rating [1, 6]: 100%
Test B disease control rating [2, 6]: 0%

CCCO/C(=C\Oc1cccc(Cn2cc(C(=O)OCC)cn2)c1)C(F)(F)F [compound 324]
Test A disease control rating [1, 6]: 0%
Test B disease control rating [2, 6]: 0%

CCO/C(=C\Oc1ccc(Cn2c(=O)oc3ccccc32)cc1)C(F)(F)F [compound 226]
Test A disease control rating [1, 3]: 0%
Test B disease control rating [2, 4]: 0%

CCO/C(=C\Oc1cccc(Cn2cc(C(=O)OCC(C)=O)cn2)c1)C(F)(F)F [compound 337]
Test A disease control rating [1, 6]: 100%
Test B disease control rating [2, 6]: 0%

CCOC(=O)c1ccn(Cc2ccc(OC)c(O/C=C(\OCC)C(F)(F)F)c2)n1 [compound 407]
Test A disease control rating [1, 5]: 0%
Test B disease control rating [2, 5]: 0%

CCO/C(=C\Oc1ccc(Cn2cc(C(=O)OC(C)(C)C)cn2)cc1)C(F)(F)F [compound 89]
Test A disease control rating [1, 3]: 0%
Test B disease control rating [2, 4]: 0%

CCCCCCOC(=O)c1cnn(Cc2ccc(OCC(O)(O)C(F)(F)F)cc2)c1 [compound 48]
Test A disease control rating [1, 7]: 100%
Test B disease control rating [2, 8]: 91%

CCO/C(=C\Oc1cccc(Cn2cc(C(=O)OCC3CC3)cn2)c1)C(F)(F)F [compound 341]
Test A disease control rating [1, 6]: 100%
Test B disease control rating [2, 6]: 0%

CCOC(=O)c1cnn(Cc2ccc(OCC(O)(O)C(F)(F)F)cc2)c1 [compound 227]
Test A disease control rating [1, 3]: 99%
Test B disease control rating [2, 4]: 55%

CCO/C(=C\Oc1ccc(Cn2ncc3cccnc32)cc1)C(F)(F)F [compound 87]
Test A disease control rating [1, 3]: 0%
Test B disease control rating [2, 4]: 0%

FC(F)(F)c1nc(-c2ccc(OCC3(C(F)(F)F)OCCO3)cc2)no1 [compound 173]
Test A disease control rating [1, 3]: 0%
Test B disease control rating [2, 4]: 0%

CCO/C(=C\Oc1ccc(Cn2cccn2)cc1)C(F)(F)F [compound 151]
Test A disease control rating [1, 3]: 0%
Test B disease control rating [2, 4]: 0%

CCOC(=O)c1cnn(Cc2ccc(OC(F)(F)C3(C(F)(F)F)OCCO3)cc2)c1 [compound 319]
Test A disease control rating [1, 5]: 100%
Test B disease control rating [2, 5]: 41%

CCOC(=O)c1cnn(Cc2ccc(C/C=C(\OCC)C(F)(F)F)cc2)c1 [compound 140]
Test A disease control rating [1, 3]: 98%
Test B disease control rating [2, 4]: 23%

CCO/C(=C\Oc1ccc(C(=O)NC)cc1)C(F)(F)F [compound 105]
Test A disease control rating [1, 3]: 0%
Test B disease control rating [2, 4]: 68%

CCOC(=O)c1cnn(-c2cccc(O/C=C(\OCC)C(F)(F)F)c2)c1 [compound 317]
Test A disease control rating [1, 5]: 0%
Test B disease control rating [2, 5]: 0%

CCCO/C(=C\Oc1ccc(Cn2cc(C(=O)OCC)cn2)cc1)C(F)(F)F [compound 65]
Test A disease control rating [1, 3]: 100%
Test B disease control rating [2, 4]: 0%

C[Si](C)(C)CCOc1nccc(Cc2ccc(OCC3(C(F)(F)F)OCCO3)cc2)n1 [compound 314]
Test A disease control rating [1, 5]: 0%
Test B disease control rating [2, 5]: 0%

CCO/C(=C\Oc1ccc(Cn2ncnc2SC)cc1)C(F)(F)F [compound 260]
Test A disease control rating [1, 6]: 0%
Test B disease control rating [2, 6]: 0%

O=C(CC(F)(F)F)NCc1ccc(OCC2(C(F)(F)F)OCCO2)cc1 [compound 212]
Test A disease control rating [1, 3]: 44%
Test B disease control rating [2, 4]: 0%

CON(Cc1ccc(OCC2(C(F)(F)F)OCCO2)cc1)C(=O)OC(C)(C)C [compound 238]
Test A disease control rating [1, 3]: 73%
Test B disease control rating [2, 4]: 0%

CCO/C(=C\Oc1ccc(CN2OCC(C)(C)C2=O)cc1)C(F)(F)F [compound 92]
Test A disease control rating [1, 3]: 0%
Test B disease control rating [2, 4]: 0%

CCO/C(=C\Oc1ccc(Cn2ccc(C(=O)OCCOC)n2)cc1)C(F)(F)F [compound 360]
Test A disease control rating [1, 6]: 100%
Test B disease control rating [2, 6]: 0%

CCCOC(=O)c1cnn(Cc2ccc(OCC(O)(O)C(F)(F)F)cc2)c1 [compound 42]
Test A disease control rating [1, 3]: 99%
Test B disease control rating [2, 4]: 85%

CCOC(=O)c1cnn(Cc2cccc(O/C=C(\OCC)C(F)(F)F)c2C)c1 [compound 303]
Test A disease control rating [1, 5]: 0%
Test B disease control rating [2, 5]: 0%

CCO/C(=C\Oc1cccc(Cn2cc(C(=O)OCCOC)cn2)c1)C(F)(F)F [compound 340]
Test A disease control rating [1, 6]: 100%
Test B disease control rating [2, 6]: 0%

O=Cc1ccc(OCC(O)(O)C(F)(F)F)cc1 [compound 177]
Test A disease control rating [1, 7]: 100%
Test B disease control rating [2, 8]: 89%

CCOC(=O)c1ccc2c(cnn2Cc2ccc(OCC3(C(F)(F)F)OCCO3)cc2)c1 [compound 160]
Test A disease control rating [1, 3]: 13%
Test B disease control rating [2, 4]: 0%
